Columns and labels:
[1] = target: T1, Organic anion transporter 3 (OAT3) (Rattus norvegicus, UniProt Q9R1U7); test: TP_TRANSPORTER: inhibition of Homovanillic acid uptake (HVA: 0.2 uM, PAH: 1000 uM) in Xenopus laevis oocytes; assay type: functional, cell-based, Oocyte; parameters: scale not given: the % may be the effect or the level left; settings: Xenopus laevis oocytes (Organic anion transporter 3), probe Homovanillic acid (HVA), read-out: Activity
T1 sequence (Q9R1U7 whole entry): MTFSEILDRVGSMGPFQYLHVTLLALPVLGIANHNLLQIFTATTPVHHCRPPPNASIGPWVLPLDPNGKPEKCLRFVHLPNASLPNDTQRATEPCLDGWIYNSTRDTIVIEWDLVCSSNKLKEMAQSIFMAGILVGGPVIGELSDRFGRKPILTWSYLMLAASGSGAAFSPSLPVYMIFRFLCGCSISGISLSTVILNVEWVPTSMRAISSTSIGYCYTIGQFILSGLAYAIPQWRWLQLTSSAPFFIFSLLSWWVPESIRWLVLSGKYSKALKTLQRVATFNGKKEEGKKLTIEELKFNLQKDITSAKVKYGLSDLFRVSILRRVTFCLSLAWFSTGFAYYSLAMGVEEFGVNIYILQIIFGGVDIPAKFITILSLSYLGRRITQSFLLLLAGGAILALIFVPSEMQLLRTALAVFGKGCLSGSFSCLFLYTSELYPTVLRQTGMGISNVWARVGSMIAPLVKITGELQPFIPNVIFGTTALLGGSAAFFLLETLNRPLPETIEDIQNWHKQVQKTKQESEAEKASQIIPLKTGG

[2] = target: T1, Organic anion transporter 3 (OAT3); test: TP_TRANSPORTER: inhibition of Homovanillic acid uptake (HVA: 0.2 uM, Baclofen: 1000 uM) in Xenopus laevis oocytes; assay type: functional, cell-based, Oocyte; parameters: scale not given: the % may be the effect or the level left; settings: Xenopus laevis oocytes (Organic anion transporter 3), probe Homovanillic acid (HVA), read-out: Activity
[3] = target: T1, Organic anion transporter 3 (OAT3); test: in vitro; settings: xenopus laevis, Xenopus laevis oocytes (Organic anion transporter 3), probe Homovanillic acid (HVA), 0.2 uM
Description: TP_TRANSPORTER: inhibition of Homovanillic acid uptake (HVA: 0.2 uM, Cimetidine: 1000 uM) in Xenopus laevis oocytes

[4] = target: T1, Organic anion transporter 3 (OAT3); test: TP_TRANSPORTER: inhibition of Homovanillic acid uptake (HVA: 0.2 uM, E1S; 1000 uM) in Xenopus laevis oocytes; assay type: functional, cell-based, Oocyte; parameters: scale not given: the % may be the effect or the level left; settings: Xenopus laevis oocytes (Organic anion transporter 3), probe Homovanillic acid (HVA), read-out: Activity
[5] = target: T1, Organic anion transporter 3 (OAT3); test: TP_TRANSPORTER: inhibition of Homovanillic acid uptake (HVA: 0.2 uM, Indomethacin: 1000 uM) in Xenopus laevis oocytes; assay type: functional, cell-based, Oocyte; parameters: scale not given: the % may be the effect or the level left; settings: Xenopus laevis oocytes (Organic anion transporter 3), probe Homovanillic acid (HVA), read-out: Activity
[6] = target: T1, Organic anion transporter 3 (OAT3); test: TP_TRANSPORTER: inhibition of Homovanillic acid uptake (HVA: 0.2 uM, 6-mercaptopurine: 1000 uM) in Xenopus laevis oocytes; assay type: functional, cell-based, Oocyte; parameters: scale not given: the % may be the effect or the level left; settings: Xenopus laevis oocytes (Organic anion transporter 3), probe Homovanillic acid (HVA), read-out: Activity
[7] = target: T1, Organic anion transporter 3 (OAT3); test: TP_TRANSPORTER: inhibition of Homovanillic acid uptake (HVA: 0.2 uM, PCG: 1000 uM) in Xenopus laevis oocytes; assay type: functional, cell-based, Oocyte; parameters: scale not given: the % may be the effect or the level left; settings: Xenopus laevis oocytes (Organic anion transporter 3), probe Homovanillic acid (HVA), read-out: Activity
[8] = target: T1, Organic anion transporter 3 (OAT3); test: TP_TRANSPORTER: inhibition of Homovanillic acid uptake (HVA: 0.2 uM, Probenecid: 1000 uM) in Xenopus laevis oocytes; assay type: functional, cell-based, Oocyte; parameters: scale not given: the % may be the effect or the level left; settings: Xenopus laevis oocytes (Organic anion transporter 3), probe Homovanillic acid (HVA), read-out: Activity
[9] = substrate: COc1cc(CC(=O)O)ccc1O; test: TP_TRANSPORTER: uptake in Xenopus laevis oocytes; assay type: functional, cell-based, Oocyte

For `Nc1ccc(C(=O)NCC(=O)O)cc1` [AMINOHIPPURIC ACID], the activity at 1000 µM [1] was 20.3%.

Work on `NCC(CC(=O)O)c1ccc(Cl)cc1` (centres undefined) [BACLOFEN] yielded an activity at 1000 µM [2] of 23.2%.

`CN/C(=N/CCSCc1nc[nH]c1C)NC#N` [CIMETIDINE] showed an activity at 1000 µM [3] of 24.5%.

`C[C@]12CC[C@@H]3c4ccc(OS(=O)(=O)O)cc4CC[C@H]3[C@@H]1CCC2=O` [ESTRONE SULFURIC ACID] was tested, and the activity at 1000 µM [4] was 4.35%.

`COc1ccc2c(c1)c(CC(=O)O)c(C)n2C(=O)c1ccc(Cl)cc1` [INDOMETHACIN] gave an activity at 1000 µM [5] of 40.9%.

`Sc1ncnc2nc[nH]c12` [MERCAPTOPURINE ANHYDROUS] was tested, and the activity at 1000 µM [6] was 8.67%.

With `CC1(C)S[C@@H]2[C@H](NC(=O)Cc3ccccc3)C(=O)N2[C@H]1C(=O)O` [PENICILLIN G] the activity at 1000 µM [7] was 1.01%.

For `CCCN(CCC)S(=O)(=O)c1ccc(C(=O)O)cc1` [PROBENECID], the activity at 1000 µM [8] was 23.4%.

B1: Organic anion transporter 3 (Rattus norvegicus) (protein)
chain: T1 sequence (Q9R1U7 whole entry)
With B1 the Km [9] was 274 µM.
